# Assay results as given in US20140336187A1, “METHODS FOR TREATING LEISHMANIASIS” (HOWARD UNIVERSITY, priority 2011, published 2014).
# Values joined by “and” are separate entries in the source; they are usually repeats but may differ in a detail not shown here. Identical values can stand only once. Like-named read-outs stand apart in the source and are kept apart here.
# Assays:
# [1] = tested on: L. donovani amastigotes; test: Antileishmanial activity on L. donovani amastigotes (resazurin assay); assay type: cell-based, Leishmania donovani; conditions: for IC50: read-out: IC50 (μM) Amastigotes; for SI Values Amastigotes: SI = IC50 (mouse fibroblast) ÷ IC50 (amastigotes)
# Procedure: Amastigotes were grown in MAA/20 medium (Amastigote medium consisted of: M199 medium supplemented with 0.5% Tryptone broth, 0.01 mM bathocuproinedisulfonic acid, 0.108 mM L-Cysteine, 15 mM D-glucose, 0.685 mM L-glutamine, and 0.025 mM Hemin and 20% fetal calf serum (FCS) at a pH of 5.5).
# Amastigotes were plated at a concentration of 2×10^5 cells/[…] 24 hrs before treatment with various compounds. Amastigotes were treated with dilutions of compounds in 96-well microtitre plates. Dilutions of compounds ranging from 0.03 μM to 44 μM were prepared and added to amastigotes. Amastigotes were exposed to compounds for 48 hrs and were incubated at 37° C. […] After the incubation period, 20 μl Alamar Blue (12.5 mg resazurin dissolved in 100 ml distilled water) (Mikes and Steverding, 2000) were added to each well and plates were incubated for another 2 hrs. […] Decrease of fluorescence (inhibition) was expressed as percentage of the fluorescence of control cultures and was plotted against the concentrations of compounds. The IC50 values were calculated from the sigmoidal inhibition curves. Amphotericin B was used as a reference drug.
# [2] = tested on: L. donovani; test: In vivo visceral leishmaniasis BALB/c mouse model: liver and spleen parasite burden (LDUs); design: species or system BALB/c mice; conditions: for LDUs (Liver): subcutaneous, 4 days from day 7; for LDUs (Liver) / LDUs (Spleen): 14 days post infection, n=2; for Parasite Suppression (%)--Liver (reduction in parasite burden) / Parasite Suppression (%)--Spleen (reduction in parasite burden) / increase in parasite burden (spleen): compared to untreated controls
# Procedure: Balb/c mice 10-11 weeks old were infected with L. donovani inoculated subcutaneously (SC) at the base of the tail (maximum 0.2 ml) with 1×10^6 freshly harvested promastigotes. These represented a VL model which has been described previously (Yardley and Croft, 1999). After infection, mice were marked for individual identification and randomly allocated into groups of two. Seven days after infection, a mouse was sacrificed, and parasitic burden assessed based on microscopic enumeration of amastigotes (Leishman donovan bodies) against host cell nuclei on liver and spleen impression smears (Stauber et al., 1958). Blood was collected through cardiac puncture for use in all serum based assays.
# Dosing began on the seventh day post-infection for 4 continuous days. […] Dosing was administered subcutaneously at the base of the tail.
# It includes the different groups of mice and the concentrations of compounds used for the treatment of infections. A Representation of infections and treatments of BALB/c Mice is in Table 2. All mice were infected with 10^6 log phase promastigotes in PBS. In each group with different concentrations, there were two mice (n=2). […] The positive controls that were infected but were not treated with any drug except PBS, and the negative controls that were not infected with the parasites, but injected with only PBS.
# The efficacy of compounds was assessed by microscopically determining the reduction in amastigotes burden Leishman donovan bodies (LDBs) within the liver and spleen. Impression smears were taken 14 days post infection (7 days after the start of treatment). Mice liver and spleen imprints were made by touching a freshly cut surface of the mice liver and spleen many times with a Poly-L-Lysine coated slide. The slides were air dried, fixed in “Diff Quick” fixative for 30 seconds, drained, stained with “Quick Diff” solution II for 30 seconds, drained, and then finally counterstaining with “Diff Quick” solution I for 30 seconds and then drained. Slides were rinsed in tap water to remove excess stain and rapidly dehydrated in absolute alcohol. Slides were examined by light microscopy, using ×1000 oil immersion. LDBs were determined by dividing the number of LDBs/number of cells nuclei x weight of organ in milligrams. This gave the number of “Leishman donovan units” (LDUs).
# The purpose of the test was to evaluate splenic and liver parasite burden after treatment with selected compounds. This was done by making imprints and calculating the number of Leishman Donovan Units (LDUs) in cells. LDUs are calculated by counting the number of parasites per cell nuclei (number of amastigotes in cells÷number of cells) multiplied by the weight of the organ in milligrams. […] Effectiveness of compounds in the treatment of VL is expressed as LDU numbers and as percent increases or percent decrease in LDUs. Percent increase in LDU means that the number of parasites increased compared to the untreated controls and percent decrease means that the number of parasites decreased compared to the untreated controls.
# [3] = In vivo cytotoxic assessment: serum AST and ALT in VL BALB/c mice; conditions: compared with uninfected negative controls
# Procedure: Serum was collected from infected, treated and non-treated mice 14 days post infection and 7 days from the start of treatment for the determination of alanine amino transferase (ALT) and aspartate amino transferase (AST) activities. Assays were done in 96 well microtiter plates and samples and standards were run in duplicates or triplicates. For ALT, 2 μl of serum from infected treated and untreated samples were incubated with 10 μl of ALT substrate solution (1.78 g DL-alanine and 30 mg α-keto glutarate in 20 ml of phosphate buffer containing 1.25 ml of 0.4 M NaOH. Volume made up to 100 ml with buffer, pH 7.4. 1 ml of chloroform as preservative. Stable for 2 months at 2-8° C.), mixed and incubated at 37° C. for 30 minutes. 10 μl of dinitrophenolhydrazine (2,4 DNPH) was added. Blanks (ddH2O) and negative (not infected) samples were then added. Samples were mixed and incubated at room temperature for 20 minutes. 100 μl of 0.4 M NaOH was added, mixed and incubated at room temperature for 5 min. Plates were read at 490 nm. For AST, 2 μl of test and positive (infected, treated and untreated) samples were incubated with 10 μl of AST substrate solution (2.66 g DL-aspartic acid and 30 mg α-keto glutarate in 20.5 ml of 1 M NaOH pH 7.4, volume made up to 100 ml with phosphate buffer. 1 ml of chloroform was added as preservative. This was stable for 2 months at 2-8° C.) and incubated at 37° C. for 1 hr. 10 μl of 2,4 DNPH added and mixed. 2 μl of negative controls (not infected) and blanks (ddH2O) added and mixed and then incubated at room temperature for 20 min. 100 μl of 0.4 M NaOH was added, mixed and incubated at room temperature for 5 min and read at 490 nm. The enzyme activity was determined from the standard curve drawn using sodium pyruvate as standard solution (2 mM/ml pyruvate). Enzyme activities were expressed as units/ml. Reference ranges by this method are: AST; 0.096-3.8 U/ml and ALT; 0.112-3.0 U/ml. (Mallick et al., 2003; Reitman and Frankel, 1957).
# In order to assess in vivo cytotoxicity of four naphthoquinone compounds (IMDNQ4, IMD8, IMDNQ 10, and IMDNQ 15), serum aspartate aminotransferase (AST), and alanine aminotransferase (ALT) levels were analyzed and compared to those in untreated controls. The assay range for AST is 0.096-3.8 U/ml (mean assay range is 1.95 U/ml) and for ALT assay, 0.112-3.0 U/ml (mean assay range is 1.56 U/ml). The results are expressed as percent increase or decrease in AST or ALT levels.
# [4] = 20 mg/kg total dose, listed as Amphotericin B
compound,measurement,setting,value
"NC1=C(Br)C(=O)c2ccccc2C1=O [IMD8, 2-Amino-3-bromo-1,4-naphthoquinone]",IC50,"[1]; Leishmania donovani, 48 h",2.07 µM
same,SI Values Amastigotes,[1],6858.62±3975.5 and 6858.62
same,LDUs (Liver),[2]; 5 mg/kg total dose,4752.5±293 LDUs
same,LDUs (Spleen),[2]; 5 mg/kg total dose,585.3±222 LDUs
same,Parasite Suppression (%)--Liver (reduction in parasite burden),[2]; 5 mg/kg,56.66% and 55.66%
same,Parasite Suppression (%)--Spleen (reduction in parasite burden),[2]; 5 mg/kg,6.51%
same,LDUs (Liver),[2]; 20 mg/kg total dose,3099.9±2197 LDUs
same,LDUs (Spleen),[2]; 20 mg/kg total dose,297.8±9.5 LDUs
same,Parasite Suppression (%)--Liver (reduction in parasite burden),[2]; 20 mg/kg,44.34%
same,Parasite Suppression (%)--Spleen (reduction in parasite burden),[2]; 20 mg/kg,52.44%
same,LDUs (Liver),[2]; 50 mg/kg total dose,1869.0±420 LDUs
same,LDUs (Spleen),[2]; 50 mg/kg total dose,391.5±96 LDUs
same,Parasite Suppression (%)--Liver (reduction in parasite burden),[2]; 50 mg/kg,81.89%
same,Serum ALT Increase (%),[3]; 5 mg/kg,100%
same,Serum AST Increase (%),[3]; 5 mg/kg,82.69%
same,Serum ALT Increase (%),[3]; 20 mg/kg,100%
same,Serum AST Increase (%),[3]; 20 mg/kg,87.48% and 85.17%
same,Serum ALT Increase (%),[3]; 50 mg/kg,100%
same,Serum AST Increase (%),[3]; 50 mg/kg,85.65% and 82.69%
CCCC(=O)N(C(=O)CCC)C1=C(Cl)C(=O)c2ccccc2C1=O [IMDNQ15],IC50,"[1]; Leishmania donovani, 48 h",18.9 µM
same,SI Values Amastigotes,[1],0.16±0.09 and 0.16
same,LDUs (Liver),[2]; 5 mg/kg total dose,2267.5±191 LDUs
same,LDUs (Spleen),[2]; 5 mg/kg total dose,315.0±129 LDUs
same,Parasite Suppression (%)--Liver (reduction in parasite burden),[2]; 5 mg/kg,73.44%
same,Parasite Suppression (%)--Spleen (reduction in parasite burden),[2]; 5 mg/kg,49.68%
same,LDUs (Liver),[2]; 20 mg/kg total dose,2598.5±89 LDUs and 2598.5 ± 889 LDUs
same,LDUs (Spleen),[2]; 20 mg/kg total dose,363.3±210 LDUs
same,Parasite Suppression (%)--Liver (reduction in parasite burden),[2]; 20 mg/kg,69.57%
same,Parasite Suppression (%)--Spleen (reduction in parasite burden),[2]; 20 mg/kg,41.97%
same,LDUs (Liver),[2]; 50 mg/kg total dose,4618.0 ± 1785 LDUs
same,LDUs (Spleen),[2]; 50 mg/kg total dose,213.0±115 LDUs
same,Parasite Suppression (%)--Liver (reduction in parasite burden),[2]; 50 mg/kg,45.92%
same,Parasite Suppression (%)--Spleen (reduction in parasite burden),[2]; 50 mg/kg,65.97%
same,Serum ALT Increase (%),[3]; 5 mg/kg,100%
same,Serum AST Increase (%),[3]; 5 mg/kg,87.95%
same,Serum ALT Increase (%),[3]; 20 mg/kg,100%
same,Serum AST Increase (%),[3]; 20 mg/kg,90.34%
same,Serum ALT Increase (%),[3]; 50 mg/kg,100%
same,Serum AST Increase (%),[3]; 50 mg/kg,91.91%
"O=C1C(Cl)=C(N(C(=O)c2cccc(Cl)c2)C(=O)c2cccc(Cl)c2)C(=O)c2ccccc21 [IMDNQ4, 3-Chloro-N-(3-chlorobenzoyl)-N-(3-chloro-1,4-dioxo-1,4-dihydronaphthalen-2-yl)-benzamide]",IC50,"[1]; Leishmania donovani, 48 h",1.19 µM
same,SI Values Amastigotes,[1],141.26±56.8 and 141.26
same,LDUs (Liver),[2]; 5 mg/kg total dose,5823.8±3378 LDUs
same,LDUs (Spleen),[2]; 5 mg/kg total dose,433.3±188 LDUs
same,Parasite Suppression (%)--Liver (reduction in parasite burden),[2]; 5 mg/kg,31.79%
same,Parasite Suppression (%)--Spleen (reduction in parasite burden),[2]; 5 mg/kg,30.79%
same,LDUs (Liver),[2]; 20 mg/kg total dose,4266.0±6033 LDUs
same,LDUs (Spleen),[2]; 20 mg/kg total dose,770.0±608 LDUs
same,Parasite Suppression (%)--Liver (reduction in parasite burden),[2]; 20 mg/kg,50.04%
same,Parasite Suppression (%)--Spleen (reduction in parasite burden),[2]; 20 mg/kg,0%
same,increase in parasite burden (spleen),[2]; 20 mg/kg,18.7%
same,LDUs (Liver),[2]; 50 mg/kg total dose,1003.8±1420 LDUs
same,LDUs (Spleen),[2]; 50 mg/kg total dose,780.3±96 LDUs
same,Parasite Suppression (%)--Liver (reduction in parasite burden),[2]; 50 mg/kg,88.24%
same,Parasite Suppression (%)--Spleen (reduction in parasite burden),[2]; 50 mg/kg,0%
same,increase in parasite burden (spleen),[2]; 50 mg/kg,19.8%
same,Serum ALT Increase (%),[3]; 5 mg/kg,100%
same,Serum AST Increase (%),[3]; 5 mg/kg,87.40%
same,Serum ALT Increase (%),[3]; 20 mg/kg,100%
same,Serum AST Increase (%),[3]; 20 mg/kg,87.48%
same,Serum ALT Increase (%),[3]; 50 mg/kg,100%
same,Serum AST Increase (%),[3]; 50 mg/kg,85.65%
"C[C@@H]1[C@H](O)[C@@H](C)/C=C/C=C/C=C/C=C/C=C/C=C/C=C/[C@H](O[C@@H]2O[C@H](C)[C@@H](O)[C@H](N)[C@@H]2O)C[C@@H]2O[C@](O)(C[C@@H](O)C[C@@H](O)[C@H](O)CC[C@@H](O)C[C@@H](O)CC(=O)O[C@H]1C)C[C@H](O)[C@H]2C(=O)O [Am. B., Amphotericin B, reference compound]",IC50,"[1]; L. donovani amastigotes, 48 hrs exposure, resazurin assay, means ± S.E.",22.3 µM
same,LDUs (Liver),[2]; 20 mg/kg total dose,5681.0 ± 1868 LDUs
same,LDUs (Liver),[2]; [4],5823.8 LDUs
same,LDUs (Spleen),[2]; 20 mg/kg total dose,402.3 ± 30 LDUs
same,LDUs (Spleen),[2]; [4],402.0±30 LDUs
same,Parasite Suppression (%)--Liver (reduction in parasite burden),[2]; 20 mg/kg,33.47%
same,Parasite Suppression (%)--Spleen (reduction in parasite burden),[2]; 20 mg/kg,35.74%
same,Parasite Suppression (%)--Spleen (reduction in parasite burden),"[2]; 20 mg/kg, listed as Amphotericin B",33.0%
same,Serum ALT Increase (%),[3]; 20 mg/kg,100%
same,Serum AST Increase (%),[3]; 20 mg/kg,88.05%
